According to PubChem BioAssay (NCI):
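Where inhibition never reached the appropriate level, the endpoint shown equals the highest concentration tested. Otherwise, values were interpolated linearly from a five-concentration, 48-hour dose response in 96-well plates. TGI denotes the concentration required for complete inhibition of growth.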

Key:
Assay in all cases: growth of human tumour cells (NCI), 48 h
[1] = system: HCT-15 colon
[2] = system: SK-OV-3 ovarian
[3] = system: HOP-62 NSCLC
[4] = system: RPMI-8226 leukemia
[5] = system: MCF7 breast
[6] = system: CAKI-1 renal
[7] = system: SK-MEL-2 melanoma
[8] = system: CCRF-CEM leukemia
[9] = system: EKVX NSCLC
[10] = system: UACC-62 melanoma
[11] = system: KM12 colon
[12] = system: MDA-MB-231 breast
[13] = system: NCI-H226 lung
[14] = system: HT29 colon
[15] = system: LOX IMVI melanoma
[16] = system: M14 melanoma
[17] = system: SNB-19 CNS
[18] = system: A549 NSCLC
[19] = system: COLO 205 colon
[20] = system: OVCAR-4 ovarian
[21] = system: SK-MEL-5 melanoma
[22] = system: IGROV1 ovarian
[23] = system: TK-10 renal
[24] = system: RXF 393 renal
[25] = system: SF-295 CNS
[26] = system: SW-620 colon
[27] = system: OVCAR-3 ovarian
[28] = system: MDA-MB-435
[29] = system: HCC-2998 colon
[30] = system: SN12C renal
[31] = system: UACC-257 melanoma
[32] = system: HS 578T breast
[33] = system: ACHN renal
[34] = system: HCT-116 colon
[35] = system: T-47D breast
[36] = system: 786-0 renal
[37] = system: SNB-75 CNS
[38] = system: OVCAR-5 ovarian
[39] = system: HOP-92 NSCLC
[40] = system: DU-145 prostate
[41] = system: UO-31 renal
[42] = system: NCI-H522 lung
[43] = system: NCI-H23 lung
[44] = system: OVCAR-8 ovarian
[45] = system: MOLT-4 leukemia
[46] = system: SF-539 CNS
[47] = system: K-562 leukemia
[48] = system: SK-MEL-28 melanoma
[49] = system: A498 renal
[50] = system: SF-268 CNS
[51] = system: U251 CNS
[52] = system: PC-3 prostate
[53] = system: BT-549 breast
[54] = system: NCI/ADR-RES ovarian
[55] = system: MALME-3M melanoma
[56] = system: NCI-H460 lung
[57] = system: HL-60(TB) leukemia

COC(=O)CCCC(=O)C1=Nc2ccccc2CN(c2ccc(Cl)cc2)N1
TGI [1]: > 100 µM | TGI [2]: > 100 µM | TGI [3]: > 100 µM | TGI [4]: > 100 µM | TGI [5]: > 100 µM | TGI [6]: > 100 µM | TGI [7]: > 100 µM | TGI [8]: > 100 µM | TGI [9]: > 100 µM | TGI [10]: > 100 µM | TGI [11]: > 100 µM | TGI [12]: > 100 µM | TGI [13]: > 100 µM | TGI [14]: > 100 µM | TGI [15]: > 100 µM | TGI [16]: > 100 µM | TGI [17]: > 100 µM | TGI [18]: > 100 µM | TGI [19]: > 100 µM | TGI [20]: 87.7 µM | TGI [21]: > 100 µM | TGI [22]: > 100 µM | TGI [23]: > 100 µM | TGI [24]: > 100 µM | TGI [25]: > 100 µM | TGI [26]: > 100 µM | TGI [27]: > 100 µM | TGI [28]: > 100 µM | TGI [29]: > 100 µM | TGI [30]: > 100 µM | TGI [31]: > 100 µM | TGI [32]: > 100 µM | TGI [33]: > 100 µM | TGI [34]: > 100 µM | TGI [35]: 49.5 µM | TGI [36]: > 100 µM | TGI [37]: > 100 µM | TGI [38]: > 100 µM | TGI [39]: > 100 µM | TGI [40]: > 100 µM | TGI [41]: > 100 µM | TGI [42]: > 100 µM | TGI [43]: > 100 µM | TGI [44]: > 100 µM | TGI [45]: > 100 µM | TGI [46]: > 100 µM | TGI [47]: > 100 µM | TGI [48]: > 100 µM | TGI [49]: > 100 µM | TGI [50]: > 100 µM | TGI [51]: > 100 µM | TGI [52]: > 100 µM | TGI [53]: > 100 µM | TGI [54]: > 100 µM

CCCOc1ccc2sc(NC(=O)c3cc([N+](=O)[O-])cc([N+](=O)[O-])c3)nc2c1
TGI [1]: > 100 µM | TGI [2]: > 100 µM | TGI [3]: > 100 µM | TGI [4]: > 100 µM | TGI [5]: > 100 µM | TGI [6]: > 100 µM | TGI [7]: > 100 µM | TGI [8]: > 100 µM | TGI [9]: > 100 µM | TGI [10]: > 100 µM | TGI [11]: > 100 µM | TGI [12]: > 100 µM | TGI [13]: > 100 µM | TGI [14]: > 100 µM | TGI [15]: 68.3 µM | TGI [16]: > 100 µM | TGI [17]: > 100 µM | TGI [18]: > 100 µM | TGI [19]: > 100 µM | TGI [20]: 58.8 µM | TGI [21]: 48.8 µM | TGI [55]: 79.3 µM | TGI [22]: 35.7 µM | TGI [23]: > 100 µM | TGI [24]: > 100 µM | TGI [25]: > 100 µM | TGI [26]: > 100 µM | TGI [27]: 68.3 µM | TGI [28]: > 100 µM | TGI [30]: > 100 µM | TGI [32]: 39.4 µM | TGI [33]: > 100 µM | TGI [34]: 89.7 µM | TGI [35]: > 100 µM | TGI [36]: > 100 µM | TGI [37]: 83.1 µM | TGI [38]: > 100 µM | TGI [39]: 49.6 µM | TGI [40]: > 100 µM | TGI [41]: 57.7 µM | TGI [43]: 82.3 µM | TGI [56]: > 100 µM | TGI [44]: > 100 µM | TGI [45]: > 100 µM | TGI [46]: > 100 µM | TGI [47]: > 100 µM | TGI [48]: > 100 µM | TGI [49]: 76.9 µM | TGI [50]: > 100 µM | TGI [51]: > 100 µM | TGI [52]: > 100 µM | TGI [57]: > 100 µM | TGI [53]: > 100 µM | TGI [54]: 61.5 µM
